One assay deals with T1, PARP1 (Homo sapiens, UniProt P09874).
T1 construct: purchased BPS Bioscience 80580
Briefly: PARP1 enzymatic inhibition assay (PARP1 Colorimetric Assay Kit). In kind it is biochemical. Here is the method:
Briefly, the 1× histone mixture was added to each well and incubated overnight at 4 °C. Each well was washed three times with 200 µL 1× TBST buffer and filled with 200 µL Blocking buffer at room temperature for 90 min. Then, each well was filled with 25 µL of PARP master mixture (5 μL activated DNA + 2.5 μL 10× PARP Assay mixture + 2.5 μL 10× PARP buffer + 15 μL distilled water). Next, 5 µL of the compound of different concentrations was added to each well, and PARP enzyme was added and incubated at room temperature for 1 h. Next, streptavidin HRP solution was added and incubated at room temperature for 30 min. After adding 100 µL of colorimetric HRP substrate to each well, the plate was incubated until a blue color developed in the positive well, which contained PARP enzyme without inhibitors. The reaction was then quenched with 2 M sulfuric acid, and absorbance at 450 nm was measured using a microplate reader (BioTek, Winooski, VT, USA). After calculating the inhibition rate, the IC50 value was determined.

The next assay concerns the target T2, recombinant HDAC1 (Homo sapiens, UniProt Q13547).
T2 construct: purchased Active Motif
Briefly: HDAC1 inhibition assay (Ac-peptide-AMC fluorescence). It is filed as biochemical. The protocol: The in vitro HDAC inhibition assays were carried out by Sundia MediTech Co. Ltd. in Shanghai, China. […] Reactions were stopped with trypsin, and the samples were incubated for another 90 min at 37 °C. […] IC50 values were obtained using GraphPad Prism software.

In assay [1] the test system is MDA-MB-436, MDA-MB-231, and MDA-MB-468 cells. The experiment in a line: Colony formation assay. In kind it is cell-based, human. The conditions noted are these: approximately 14 days. The protocol: MDA-MB-231, MDA-MB-436 and MDA-MB-468 cells were seeded at a density of 2,000 cells in 6-well plates and cultured overnight. […] The cells were fixed with 4% paraformaldehyde (Merck) for 1 h at room temperature and stained with 0.1% crystal violet (Beyotime Biotechnology) for 30 min. Under an inverted phase contrast microscope (Leica Microsystems, Heidelberg, Germany), cell colonies were photographed at 5× magnification. All these analyses were performed at least three times.

For another assay, the system named is p-H2A.X. Briefly: Western blot of H2A.X phosphorylation (DNA damage) in TNBC cells. It is filed as cell-based, human. The note with it: TNBC cell lines, 48 h. Here is the method: (§1) Western blot analysis was performed as previously described, and all western blot analyses were performed at least three times.
(§2) Western blot analysis was performed as previously described. Briefly, whole cell or tissue lysates were prepared using ice-cold Nonidet P-40 buffer mixed with protease and phosphatase inhibitors (Roche, IN, USA) and centrifuged at 14,000 × g at 4 °C for 10 min. The protein lysates were fractionated by sodium dodecyl sulfate–polyacrylamide gel electrophoresis (SDS–PAGE) and transferred to polyvinylidene fluoride (PVDF) membranes (Merck, Darmstadt, Germany). Membranes were incubated in 1× TBST buffer containing 5% nonfat powdered milk at room temperature for 2 h. The indicated primary antibody was incubated with PVDF membranes, followed by a washing step using 1× TBST and a secondary antibody conjugated to HRP. Signal detection was carried out using the Western ECL Substrate kit (Bio-Rad, Hercules, CA, USA). […]
Background: Immunoblotting shows a protein as a band on a membrane.

The next assay relates to H3K9 acetylation. The experiment in a line: Western blot of histone H3 lysine 9 acetylation in TNBC cells. It is filed as cell-based, human. The conditions noted are these: TNBC cell lines, 48 h. The protocol:
as §1, §2

The next assay deals with TNBC cells. The experiment in a line: Transwell migration assay. It is filed as cell-based, human. The conditions noted are these: 48 h, compared with the vehicle. Here is the method:
Cell migration and invasion assays were performed using Transwell chambers with 8 μm pores without Matrigel (for migration assay) or with Matrigel (for invasion assay).
Cell migration and invasion assays were performed using Transwell chambers with 8 μm pores (Corning) without Matrigel (for migration assay) or with Matrigel (for invasion assay). MDA-MB-436 and MDA-MB-231 cells were resuspended in serum-free Leibovitz’s L-15 medium and seeded in the upper chamber at a density of 12,000 cells/100 μL. The chambers were incubated in 24-well plates containing Leibovitz’s L-15 medium with 10% FBS and PARP/HDACi or DMSO. After 48 h, the cells were fixed with 4% paraformaldehyde and stained with crystal violet. The cells on the upper surface of the filters were removed by swabbing with a cotton swab, and the images were captured at 5× magnification under an inverted phase contrast microscope (Leica Microsystems).

The subject of a further assay is MCF-10A cells. The experiment in a line: MTT cell viability assay, MCF-10A. The conditions noted are these: Homo sapiens, 72 h, read-out: IC50 MCF-10A. (In general: Formazan colour is commonly taken as a measure of viable cells.)
For another assay, the system named is MDA-MB-436 cells. The experiment in a line: MTT cell viability assay, MDA-MB-436. The note with it: Homo sapiens, MDA-MB-436, 72 h, read-out: IC50 MDA-MB-436.
Another assay concerns MDA-MB-231 cells. The experiment in a line: MTT cell viability assay, MDA-MB-231. The conditions noted are these: Homo sapiens, MDA-MB-231, 72 h, read-out: IC50 MDA-MB-231.
The next assay relates to MDA-MB-468 cells. Briefly: MTT cell viability assay, MDA-MB-468. The note with it: Homo sapiens, MDA-MB-468, 72 h, read-out: IC50 MDA-MB-468.

SMILES strings stand for the structures. A value given as a limit tells only on which side of the number the result lay.

For orientation: IC50 means the concentration that gives 50% inhibition.

T2 sequence (Q13547 whole entry): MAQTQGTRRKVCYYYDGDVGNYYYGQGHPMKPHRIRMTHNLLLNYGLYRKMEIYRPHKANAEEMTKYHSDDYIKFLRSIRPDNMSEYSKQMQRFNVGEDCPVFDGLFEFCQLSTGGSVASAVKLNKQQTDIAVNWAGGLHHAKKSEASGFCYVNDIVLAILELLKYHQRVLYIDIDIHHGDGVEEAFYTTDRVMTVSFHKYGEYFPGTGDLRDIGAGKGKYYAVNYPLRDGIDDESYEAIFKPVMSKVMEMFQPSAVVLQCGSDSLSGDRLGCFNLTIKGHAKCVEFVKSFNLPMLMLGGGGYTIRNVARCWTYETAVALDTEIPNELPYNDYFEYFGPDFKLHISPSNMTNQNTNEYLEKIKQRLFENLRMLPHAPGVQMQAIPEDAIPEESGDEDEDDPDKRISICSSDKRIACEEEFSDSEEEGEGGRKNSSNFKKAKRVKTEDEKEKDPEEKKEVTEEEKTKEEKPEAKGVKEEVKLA
T1 sequence (P09874 whole entry): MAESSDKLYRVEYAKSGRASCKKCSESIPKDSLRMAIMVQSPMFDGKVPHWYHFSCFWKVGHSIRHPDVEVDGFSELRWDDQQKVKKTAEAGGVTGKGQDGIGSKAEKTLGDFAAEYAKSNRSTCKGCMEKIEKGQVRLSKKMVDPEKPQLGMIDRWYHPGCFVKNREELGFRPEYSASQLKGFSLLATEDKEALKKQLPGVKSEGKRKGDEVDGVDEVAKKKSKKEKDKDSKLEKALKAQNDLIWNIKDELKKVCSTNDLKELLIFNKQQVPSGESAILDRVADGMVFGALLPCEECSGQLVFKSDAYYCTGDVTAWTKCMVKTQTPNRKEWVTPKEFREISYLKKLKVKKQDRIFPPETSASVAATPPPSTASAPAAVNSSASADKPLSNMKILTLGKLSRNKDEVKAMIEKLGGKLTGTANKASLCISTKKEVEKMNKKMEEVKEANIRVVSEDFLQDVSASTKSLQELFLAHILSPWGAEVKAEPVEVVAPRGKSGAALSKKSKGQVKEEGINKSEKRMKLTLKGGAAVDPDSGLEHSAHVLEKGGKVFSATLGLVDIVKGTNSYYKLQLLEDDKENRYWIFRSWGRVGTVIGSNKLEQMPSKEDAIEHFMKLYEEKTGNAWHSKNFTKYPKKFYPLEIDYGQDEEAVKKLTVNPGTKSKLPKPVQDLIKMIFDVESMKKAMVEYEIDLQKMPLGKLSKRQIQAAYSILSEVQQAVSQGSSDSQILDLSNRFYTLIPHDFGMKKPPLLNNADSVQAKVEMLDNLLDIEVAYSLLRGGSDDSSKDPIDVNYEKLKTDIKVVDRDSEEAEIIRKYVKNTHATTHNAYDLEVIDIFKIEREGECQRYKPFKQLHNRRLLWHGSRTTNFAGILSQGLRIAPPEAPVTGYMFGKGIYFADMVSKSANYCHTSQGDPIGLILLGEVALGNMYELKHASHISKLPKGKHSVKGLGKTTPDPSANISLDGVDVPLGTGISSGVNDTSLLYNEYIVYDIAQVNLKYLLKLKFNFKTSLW
Experimental for MCF-10A cells: (§3) The viability assay was measured by a 3-(4,5-dimethylthiazol-2-yl)−2,5-diphenyltetrazolium bromide (MTT) assay.
(§4) In brief, cells were seeded at a density of 6,000 cells in 96-well plates and cultured overnight. […] After aspiration of the medium, the formazan crystals were dissolved in 100 μL of DMSO. The absorbance at 490 nm was measured using a microplate reader (BioTek). All these analyses were performed at least three times.
Experimental for MDA-MB-231 cells: as §3, §4
Experimental for MDA-MB-436 cells: as §3, §4

Turning to `Nc1cc(F)ccc1NC(=O)CCc1ccc(CN2CCN(C(=O)c3cc(Cc4n[nH]c(=O)c5ccccc45)ccc3F)CC2)cc1` [Compound B302], the IC50 against PARP1 is 0.0127 µM; at recombinant HDAC1 it was greater than 10 µM; in the assay with MCF-10A cells, 36.8 ± 6.59 µM; in the assay on MDA-MB-436 cells it was 4.12 ± 1.02 µM; in the assay with MDA-MB-231 cells it was 2.83 ± 0.4 µM; with MDA-MB-468 cells it was 1.27 ± 0.58 µM. The “colony formation of TNBC cells” value in assay [1] is “reduction in colony formation”. Moreover, the “p-H2A.X levels (DNA DSBs)” value with p-H2A.X was “increased p-H2A.X (S136) levels”. The “acetylation of lysine 9 of histone H3 (H3K9)” value in the assay with H3K9 acetylation is “elevated the acetylation”. Besides, in the assay with TNBC cells, the “migration of TNBC cells” value is reported as “considerably inhibited the migration”.

As to `Nc1cc(F)ccc1NC(=O)/C=C/c1ccc(CN2CCN(C(=O)c3cc(Cc4n[nH]c(=O)c5ccccc45)ccc3F)CC2)cc1` [Compound B102], the IC50 on PARP1 came out at 0.019 µM; at recombinant HDAC1, 1.69 µM; in the assay with MCF-10A cells, 13.7 ± 0.23 µM; in the assay on MDA-MB-436 cells it was 0.16 ± 0.05 µM; in the assay on MDA-MB-231 cells, 0.16 ± 0.02 µM; in the assay on MDA-MB-468 cells, 0.27 ± 0.11 µM. Further, the “colony formation of TNBC cells” value in assay [1] was “reduction in colony formation”. Further, the “p-H2A.X levels (DNA DSBs)” value in the assay on p-H2A.X is recorded as “increased p-H2A.X (S136) levels”. Moreover, the “acetylation of lysine 9 of histone H3 (H3K9)” value in the assay with H3K9 acetylation is given as “elevated the acetylation”. Moreover, the “migration of TNBC cells” value in the assay on TNBC cells is listed as “considerably inhibited the migration”.

(Values after article PMC10770036, “Novel dual inhibitors of PARP and HDAC induce intratumoral STING-mediated antitumor immunity in triple-negative breast cancer” (Cell Death & Disease, 2024).)
